Converted amounts (≈) assume the structure as drawn.
Tests used:
[1] = tested on: Streptococcus Group A; experiment: MIC, broth dilution (Examples I/II); assay type: cell-based, beta-hemolytic streptococci Group A; settings: Group A Strep; read-out: Inhibitory concentration
Outline: (§1)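 Steps: dissolve compound in ethanol or methanol, pour into TSB, warm to ~70° C and sonicate; serially halve from 1,000 to 125 μg/ml; steam-sterilize and pre-incubate for sterility. Inoculate with broth culture (~10^7–10^9/ml), incubate at 35–36° C, then score lowest growth-free concentration as MIC.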

[2] = tested on: Nocardia asteroides; experiment: MIC, broth dilution (Examples I/II); assay type: cell-based, Nocardia asteroids (3308); settings: Nocardia asteroides; read-out: Inhibitory concentration
Outline: as §1

[3] = tested on: S. aureus; experiment: MIC, broth dilution (Examples I/II); assay type: cell-based, Staphylococcus aureus; settings: Staphylococcus aureus; S. aureus; read-out: Inhibitory concentration
Protocol: (§2) In order to establish comparative bactericidal and fungicidal results with homologous fatty acids, a series of experiments was performed with thirty straight-chain fatty acids and derivatives thereof. Eight different gram-negative and twelve different gram-positive organisms, representing a very broad spectrum of organisms, were used in these experiments including the fungus Candida (a yeast). Additionally, fatty acids were chosen to show the effects of saturation versus unsaturation, in the fatty acid claim. Standard solutions of the fatty acids and their derivatives were prepared by first dissolving the weighed compounds in 1 to 2 ml of 95% ethanol and immediately pouring this solution into 200 ml of Tripticase Soy Broth. These lipid compounds which are insoluble in water and broth precipitated into very small crystals or droplets. The tubes containing the suspension were warmed to approximately 70° C and were then placed in an ultrasonic tank for further solubilization of the lipid derivatives.
(§3) Standard solutions (or suspensions) at 1,000 μg/ml were twofold serially diluted with additional broth to a concentration of 125 μg/ml. A 4-ml amount of each dilution was then quickly, and with constant agitation, dispensed into appropriately labeled screw-capped glass tubes (16 by 125 mm). The tubes were sterilized with steam at 15 psi for 15 minutes. After sterilization, all tubes were cooled and incubated overnight at 35° C to insure sterility.
(§4) All compounds were compared on a molar (micromoles/milliliter) rather than on a mass basis. In the following lists of organisms used, those followed by a parenthetical number are registered with the American Type Culture Collection (ATCC); the remainder were isolates from Providence Hospital or Northland Laboratory.
One drop (0.04 ± 0.01 ml) of an 18-hr broth culture containing 10^7 and 10^9 organisms/ml was added to each dilution of the test compound, as well as to a tube of plain broth which served as the positive control. […]

[4] = tested on: Streptococcus Group D; experiment: MIC, broth dilution (Examples I/II); assay type: cell-based; settings: Group D Strep
Protocol: as §2, §3, §4
One drop (0.04 ± 0.01 ml) of an 18-hr broth culture containing 10^7 and 10^9 organisms/ml was added to each dilution of the test compound, as well as to a tube of plain broth which served as the positive control. After inoculation, the contents of each tube were well mixed, and the tubes were incubated at 35° C in a 5% carbon dioxide + […] atmosphere.
The MIC is defined as the lowest concentration of compound at which no […] evidence of growth was observed when turbidity of the inoculated broth dilutions was compared with control tubes. […] Only a one-tube difference between the bactericidal and bacteriostatic concentrations was normally observed.
(§5) Standard solutions (1000 μg/ml) of three fatty acids and polyglycerol esters thereof were prepared as described in Example I. Also sucrose esters were prepared by transferring the weighed compounds (0.2 gm. dissolved in 1 ml absolute methanol) into 200 ml of sterile Trypticase Soy Broth (TSB). These standard solutions (1000 μg/ml) were twofold serially diluted with additional sterile broth to a concentration of 125 μg/ml. A 3.8 aliquot of each dilution was asceptically delivered into sterile screw-capped culture tubes. All tubes were incubated overnight at 36° C to insure sterility. The microorganisms used in this example were the same as those used in Example I.
(§6) The inoculum, 0.05 ml of an 13-24 hour TSB culture (approximately 10^9 organisms/ml) was asceptically delivered into all dilutions of the compounds, mixed well, and incubated at 36° C. A tube of inoculated broth without the compound served as a positive control and an uninoculated set of dilutions incubated along with the test dilutions, served as a negative control.
In those cases in which the test compound itself caused turbidity, an aliquot (0.015 ml) of the mixed broth was inoculated onto an agar plate and incubated at 36° C for examination, as described in Example I. The control procedure of Example I was also repeated. The lauric, capric, and oleic acids were used as internal controls and for comparison to Example I. The minimal inhibitory concentrations (μmole/ml) for the compounds studied are given in Tables 7 and 8.

[5] = tested on: Saccharomyces cerevisiae; experiment: MIC, broth dilution (Example II); assay type: cell-based; settings: 18 h, read-out: Inhibitory concentration
Protocol: as §5, §6
In those cases in which the test compound itself caused turbidity, an aliquot (0.015 ml) of the mixed broth was inoculated onto an agar plate and incubated at 36° C for examination, as described in Example I. The control procedure of Example I was also repeated. […]

[6] = tested on: E. coli; experiment: MIC, broth dilution (Example II); assay type: cell-based, Escherichia coli
Protocol: Proteus vulgaris, P. mirabilis (14273), P. rettgeri (9250), Escherichia coli, Serratia marcescens (13880), Enterobacter-Klebsiella, Pseudomonas aeruginosa (10145), and Salmonella typhimurium.
as §5
as §6, with “control. […]” for “control.”

Structure (SMILES): CCCCCCCCCCC(O)C(=O)OC (stereo not drawn) [Methyl, α-hydroxylaurate]
- MIC [1]: 540 µM (≈ 124 µg/mL)
- MIC [2]: 4340 µM (≈ 1000 µg/mL)
- MIC [3]: 540 µM (≈ 124 µg/mL)
- Inhibition in words [4]: Neither compound was inhibitory
- MIC [5]: 540 µM (≈ 124 µg/mL)
- Inhibition in words [6]: Neither compound was inhibitory

From patent US4067997A, “Synergistic microbecidal composition and method” (priority 1976, dated 1978)
